Values quoted from earlier work, collected in patent publication US20050065134A1, “2-aklylidene-19-nor-vitamin D derivatives for the treatment of anorexia or low bone mass in females exhibiting aggressive athletic behavior” (Pfizer Inc, priority 2003, published 2005).
Like-named read-outs stand apart in the source and are kept apart here.

Test system: intestinal calcium transport
Details: 7 days, rats

| SMILES | change in intestinal calcium transport (in words) (260 pmol/day, only dose tested) | change in intestinal calcium transport (in words) (130 and 260 pmol/day) |
| --- | --- | --- |
| C=C1/C(=C\C=C2/CCC[C@]3(C)[C@@H]([C@H](C)CCCC(C)(C)O)CC[C@@H]23)C[C@@H](O)C[C@@H]1O [1,25-(OH)2D3, 1,25-dihydroxyvitamin D3, reference compound] | expected elevation of intestinal calcium transport |  |
| C=C1[C@H](O)CC(=C/C=C2\CCC[C@]3(C)[C@@H]([C@H](C)CCCC(C)(C)O)CC[C@@H]23)C[C@H]1O [2-Methylene-19-Nor-1,25-(OH)2D3, 1α,25-dihydroxy-2-methylene-19-nor-vitamin D3] |  | no intestinal calcium transport activity |
| C=C1[C@H](O)CC(=C/C=C2\CCC[C@]3(C)[C@@H]([C@@H](C)CCCC(C)(C)O)CC[C@@H]23)C[C@H]1O [2-Methylene-19-Nor-20S-1,25-(OH)2D3, (20S)-1α,25-dihydroxy-2-methylene-19-nor-vitamin D3] |  | no significant change |
